ChEMBL document CHEMBL1151401, “Plant anticancer agents. XII. Isolation and structure elucidation of new cytotoxic quinones from Tabebuia cassinoides” (1982)
Converted amounts (≈) assume the structure as drawn. The source made the active and inactive calls. No cut-off for these calls is given here.

How the values were obtained:
KB = assay: Cytotoxicity against human KB cells; format: functional; details: read-out: ED50 (the source's name)
P388 = assay: In vivo cytotoxicity against mouse P388 cells at upto 35 mg/kg; format: functional, organism-based; set-up: dose 35 mg/kg

SMILES	EC50 (KB) [µg/mL]	Activity (P388)
CC(O)c1cc2c(o1)C(=O)c1ccccc1C2=O (stereo not given)	2 (≈ 8.26 µM)	–
CC(C)=CCC1=C(O)C(=O)c2ccccc2C1=O [LAPACHOL]	4.4 (≈ 18.2 µM)	–
CC(=O)c1cc2c(o1)C(=O)c1ccccc1C2=O [NAPABUCASIN]	1 (≈ 4.16 µM)	inactive
CC(O)c1cc2c(o1)C(=O)c1c(O)cccc1C2=O (stereo not given)	1 (≈ 3.87 µM)	–
